According to patent US20240091279A1, “COMBINATION THERAPY FOR INFLAMMATORY DISEASES” (University of lowa Research Foundation, priority 2022, published 2024):
Read-outs that look alike come from different tables or passages of the source.

Tests used:
mouse model of MS = assay: Mouse model of MS, Example I; format: in vivo, mice; settings: versus diet lacking phytoestrogen
[1] = system: experimental autoimmune encephalomyelitis (EAE); settings: earlier published studies, cited from earlier work
[2] = versus the original isoflavones; cited from earlier work

Row | Compound | disease severity (mouse model of MS) | EAE disease [1] | EAE disease ([1]; listed as equol) | estrogenic activity [2]
1 | Oc1ccc([C@H]2COc3cc(O)ccc3C2)cc1 [S-equol] | mimic some of the disease protective function | sufficient to ameliorate EAE | protect | significantly higher estrogenic activity
2 | Parabacteroides distasonis |  | sufficient to ameliorate EAE |  | 
